From ChEMBL document CHEMBL1649197, “New combinations of mutations in VanD-Type vancomycin-resistant Enterococcus faecium, Enterococcus faecalis, and Enterococcus avium strains” (2009)
In brackets after ≈: the same amount, converted by molar mass.

Legend:
Format in all cases: functional
Enterococcus faecium [1] = assay: Antimicrobial activity against vancomycin and teicoplanin resistant Enterococcus faecium BM4339 after 24 hrs; conditions: BM4339, 24 h
Enterococcus faecium [2] = assay: Antimicrobial activity against vancomycin and teicoplanin resistant Enterococcus faecium NEF1 after 24 hrs; conditions: NEF1, 24 h
Enterococcus faecium [3] = assay: Antimicrobial activity against Enterococcus faecium BM4458 harboring plasmid PAT833 carrying P2 vanSD (G340S) aac (6)-aph (2) mutant gene after 24 hrs; conditions: BM4458, 24 h
Enterococcus faecium [4] = assay: Antimicrobial activity against Enterococcus faecium BM4458 after 24 hrs; conditions: BM4458, 24 h
Enterococcus faecium [5] = assay: Antimicrobial activity against vancomycin and teicoplanin resistant Enterococcus faecium BM4656 after 24 hrs; conditions: BM4656, 24 h
Enterococcus faecalis = assay: Antimicrobial activity against vancomycin and teicoplanin resistant Enterococcus faecalis BM4654 after 24 hrs; conditions: BM4654, 24 h
Enterococcus faecium [6] = assay: Antimicrobial activity against Enterococcus faecium BM4458 harboring plasmid PAT830 carrying P2 vanSD (V67A) aac (6)-aph (2) mutant gene after 24 hrs; conditions: BM4458, 24 h
Enterococcus faecium [7] = assay: Antimicrobial activity against vancomycin and teicoplanin resistant Enterococcus faecium BM4653 after 24 hrs; conditions: BM4653, 24 h
Enterococcus faecium [8] = assay: Antimicrobial activity against Enterococcus faecium BM4458 harboring plasmid PAT831 carrying P2 vanSD 6bp330 aac (6)-aph (2) mutant gene after 24 hrs; conditions: BM4458, 24 h
Enterococcus avium = assay: Antimicrobial activity against vancomycin and teicoplanin resistant Enterococcus avium BM4655 after 24 hrs; conditions: BM4655, 24 h
Enterococcus faecium [9] = assay: Antimicrobial activity against Enterococcus faecium BM4458 harboring plasmid PAT832 carrying P2 vanSD (K308Q I309V R335Q) aac (6)-aph (2) mutant gene after 24 hrs; conditions: BM4458, 24 h

| Structure (SMILES) | MIC (Enterococcus faecium [1]) | MIC (Enterococcus faecium [2]) | MIC (Enterococcus faecium [3]) | MIC (Enterococcus faecium [4]) | MIC (Enterococcus faecium [5]) | MIC (Enterococcus faecalis) | MIC (Enterococcus faecium [6]) | MIC (Enterococcus faecium [7]) | MIC (Enterococcus faecium [8]) | MIC (Enterococcus avium) | MIC (Enterococcus faecium [9]) |
| --- | --- | --- | --- | --- | --- | --- | --- | --- | --- | --- | --- |
| CC(=O)N[C@@H]1[C@H](Oc2c3cc4cc2Oc2ccc(cc2Cl)[C@@H](O[C@@H]2O[C@@H](CO)[C@@H](O)[C@H](O)[C@@H]2NC(C)=O)[C@@H]2NC(=O)[C@H](NC(=O)[C@@H]4NC(=O)[C@H]4NC(=O)[C@@H](Cc5ccc(c(Cl)c5)O3)NC(=O)[C@H](N)c3ccc(O)c(c3)Oc3cc(O)cc4c3)c3ccc(O)c(c3)-c3c(O[C@H]4O[C@H](CO)[C@@H](O)[C@@H](O)[C@@H]4O)cc(O)cc3[C@@H](C(=O)O)NC2=O)O[C@@H](CO)[C@@H](O)[C@@H]1O | 4 µg/mL (≈ 2.26 µM) | 64 µg/mL (≈ 36.2 µM) | 0.5 µg/mL (≈ 0.283 µM) | 0.5 µg/mL (≈ 0.283 µM) | 4 µg/mL (≈ 2.26 µM) | 0.5 µg/mL (≈ 0.283 µM) | 0.5 µg/mL (≈ 0.283 µM) | 4 µg/mL (≈ 2.26 µM) | 0.5 µg/mL (≈ 0.283 µM) | 4 µg/mL (≈ 2.26 µM) | 0.5 µg/mL (≈ 0.283 µM) |
| CN[C@H](CC(C)C)C(=O)N[C@H]1C(=O)N[C@@H](CC(N)=O)C(=O)N[C@H]2C(=O)N[C@H]3C(=O)N[C@H](C(=O)N[C@H](C(=O)O)c4cc(O)cc(O)c4-c4cc3ccc4O)[C@H](O)c3ccc(c(Cl)c3)Oc3cc2cc(c3O[C@@H]2O[C@H](CO)[C@@H](O)[C@H](O)[C@H]2O[C@H]2C[C@](C)(N)[C@H](O)[C@H](C)O2)Oc2ccc(cc2Cl)[C@H]1O [VANCOMYCIN] | 64 µg/mL (≈ 44.2 µM) | 512 µg/mL (≈ 353 µM) | 4 µg/mL (≈ 2.76 µM) | 4 µg/mL (≈ 2.76 µM) | 32 µg/mL (≈ 22.1 µM) | 16 µg/mL (≈ 11 µM) | 4 µg/mL (≈ 2.76 µM) | 32 µg/mL (≈ 22.1 µM) | 4 µg/mL (≈ 2.76 µM) | 32 µg/mL (≈ 22.1 µM) | 4 µg/mL (≈ 2.76 µM) |
